Experimental findings from ChEMBL document CHEMBL1155809, “Design, synthesis, and antihepatocellular carcinoma activity of nitric oxide releasing derivatives of oleanolic acid” (J Med Chem, 2008) are described below.

Molecules are shown by their SMILES. Activity calls are given as the source filed them. The rule behind the calls is not given here.

Assay [1] relates to MCF7. Put plainly: Cytotoxicity against human MCF7 cells assessed as cell death by lactate dehydrogenase release assay. Format: functional, cell-based.
For assay [2], the system named is HEK293. Put plainly: Cytotoxicity against HEK293 cells assessed as cell death by lactate dehydrogenase release assay. The assay is classed as functional, cell-based. As to conditions: Homo sapiens.
In assay [3] the test system is Hep 3B2. Put plainly: Cytotoxicity against human Hep3B cells assessed as levels of nitric oxide production at 100 uM after 30 to 300 mins by colorimetric assay. Format: functional, cell-based.
For assay [4], the system named is HeLa. Put plainly: Cytotoxicity against human HeLa cells assessed as levels of nitric oxide production at 100 uM after 30 to 300 mins by colorimetric assay. Format: functional, cell-based.
The subject of assay [5] is PC-3. In words: Cytotoxicity against human PC3 cells assessed as levels of nitric oxide production at 100 uM after 30 to 300 mins by colorimetric assay. The assay is classed as functional, cell-based.
For assay [6], the system named is MCF7. Put plainly: Cytotoxicity against human MCF7 cells assessed as levels of nitric oxide production at 100 uM after 30 to 300 mins by colorimetric assay. Format: functional, cell-based.
The subject of assay [7] is HEK293. In words: Cytotoxicity against human HEK293 cells assessed as levels of nitric oxide production at 100 uM after 30 to 300 mins by colorimetric assay. The assay is classed as functional, cell-based.
The test system of assay [8] is HepG2. Put plainly: Cytotoxicity against human HepG2 cells assessed as levels of nitric oxide production at 100 uM after 30 to 300 mins by colorimetric assay. Format: functional, cell-based.
Assay [9] deals with HepG2. In words: Cytotoxicity against human HepG2 cells assessed as cell death at 1 uM after 24 hrs by lactate dehydrogenase release assay. Format: functional.
Assay [10] concerns HepG2. In words: Cytotoxicity against human HepG2 cells assessed as cell death at 0.1 uM after 24 hrs by lactate dehydrogenase release assay. Format: functional.
Assay [11] deals with HepG2. In words: Cytotoxicity against human HepG2 cells assessed as cell death at 0.01 uM after 24 hrs by lactate dehydrogenase release assay. Format: functional.
The subject of assay [12] is HepG2. In words: Cytotoxicity against human HepG2 cells assessed as cell death at 0.001 uM after 24 hrs by lactate dehydrogenase release assay. Format: functional.
Assay [13] can be described thus: Cytotoxicity against human Hep3B cells assessed as cell death at 1 uM after 24 hrs by lactate dehydrogenase release assay. Format: functional, Hep 3B2.
Assay [14] in a line: Cytotoxicity against human Hep3B cells assessed as cell death at 0.1 uM after 24 hrs by lactate dehydrogenase release assay. The assay is classed as functional, Hep 3B2.
Assay [15] can be described thus: Cytotoxicity against human Hep3B cells assessed as cell death at 0.01 uM after 24 hrs by lactate dehydrogenase release assay. The assay is classed as functional, Hep 3B2.
Assay [16] is described as follows: Cytotoxicity against human Hep3B cells assessed as cell death at 0.001 uM after 24 hrs by lactate dehydrogenase release assay. The assay is classed as functional, Hep 3B2.
Assay [17] concerns HeLa. In words: Cytotoxicity against human HeLa cells assessed as cell death by lactate dehydrogenase release assay. The assay is classed as functional, cell-based.
The subject of assay [18] is PC-3. In words: Cytotoxicity against human PC3 cells assessed as cell death by lactate dehydrogenase release assay. Format: functional, cell-based.

For the compound `C[C@H](CCC(=O)O)[C@H]1CC[C@H]2[C@@H]3[C@@H](O)C[C@@H]4C[C@H](O)CC[C@]4(C)[C@H]3CC[C@]12C` [URSODIOL], the result in assay [1], in assay [2], in assay [4], in assay [5], in [6] and in [7] was inactive. In addition, the result in assay [17] and in assay [18] was inactive. In addition, the result in [3] and in assay [8] was Active. Also, the Activity in assay [9], in [10], in assay [11], in [12], in [13] and in assay [14] was 0% in each case. For the same compound, the Activity in [15] and in assay [16] was 0% throughout.
For the compound `CC1(C)CC[C@]2(C(=O)O)CC[C@]3(C)C(=CC[C@@H]4[C@@]5(C)CC[C@H](OC(=O)CCC(=O)OCCCCOc6no[n+]([O-])c6S(=O)(=O)c6ccccc6)C(C)(C)[C@@H]5CC[C@]43C)[C@@H]2C1`, the outcome in assay [1], in assay [2], in assay [4], in [5], in assay [6] and in [7] was inactive. The outcome in [17] and in assay [18] was inactive. The result in assay [3] and in assay [8] was Active. For the same compound, the Activity is given as 98.16% in assay [9]; 56.35% in [10]; 10.96% in assay [11]; 2.6% in assay [12]; 100% in [13]; 61.18% in assay [14]. For the same compound, the results for the Activity in assay [15] and in [16] were 7.52% and 0%, respectively.
In the case of `CC1(C)CC[C@]2(C(=O)O)CC[C@]3(C)C(=CC[C@@H]4[C@@]5(C)CC[C@H](OC(=O)CCC(=O)OCC#CCOc6no[n+]([O-])c6S(=O)(=O)c6ccccc6)C(C)(C)[C@@H]5CC[C@]43C)[C@@H]2C1`, the result in [1], in [2], in assay [4], in assay [5], in assay [6] and in [7] was inactive. For the same compound, the outcome in [17] and in assay [18] was inactive. In addition, the result in assay [3] and in assay [8] was Active. For the same compound, the Activity in assay [9] was determined as 67.41%; in assay [10], 13.68%; in assay [11], 10.07%; in [12] it was 0%; in [13] it was 72.51%; in [14] it was 19.61%. Besides, the Activity in [15] came out at 8.42%; in [16], 0%.
Turning to `CC1(C)CC[C@]2(C(=O)O)CC[C@]3(C)C(=CC[C@@H]4[C@@]5(C)CC[C@H](OC(=O)CCC(=O)OCc6c(-c7ccccc7)no[n+]6[O-])C(C)(C)[C@@H]5CC[C@]43C)[C@@H]2C1`, the result in assay [1], in assay [2], in assay [4], in [5], in assay [6] and in [7] was inactive. For the same compound, the outcome in assay [17] and in assay [18] was inactive. Moreover, the outcome in [3] and in [8] was Active. For the same compound, the Activity in assay [9], in assay [10], in assay [11], in assay [12], in assay [13] and in assay [14] was 0% throughout. Also, the Activity in [15] and in assay [16] was 0% each time.
Regarding `CC1(C)CC[C@]2(C(=O)O)CC[C@]3(C)C(=CC[C@@H]4[C@@]5(C)CC[C@H](OC(=O)CCC(=O)NCCOc6no[n+]([O-])c6S(=O)(=O)c6ccccc6)C(C)(C)[C@@H]5CC[C@]43C)[C@@H]2C1`, the result in assay [1], in [2], in [4], in assay [5], in assay [6] and in assay [7] was inactive. Also, the result in assay [17] and in assay [18] was inactive. The outcome in assay [3] and in [8] was Active. Further, the Activity was determined as 74.53% in assay [9]; 13.01% in [10]; 8.51% in assay [11]; 0% in assay [12]; 66.21% in assay [13]; 16.34% in assay [14]. Also, the results for the Activity in assay [15] and in assay [16] were 5.26% and 0%, respectively.
Turning to `CC1(C)CC[C@]2(C(=O)O)CC[C@]3(C)C(=CC[C@@H]4[C@@]5(C)CC[C@H](OC(=O)CCC(=O)OCc6cccc(Oc7no[n+]([O-])c7S(=O)(=O)c7ccccc7)c6)C(C)(C)[C@@H]5CC[C@]43C)[C@@H]2C1`, the result in assay [1], in [2], in assay [4], in assay [5], in assay [6] and in assay [7] was inactive. Besides, the outcome in assay [17] and in assay [18] was inactive. In addition, the result in assay [3] and in assay [8] was Active. The Activity in [9], in [10], in [11], in [12], in assay [13] and in [14] was 0% in each case. Moreover, the Activity in assay [15] and in assay [16] was 0% each time.
With `CC1(C)CC[C@]2(C(=O)O)CC[C@]3(C)C(=CC[C@@H]4[C@@]5(C)CC[C@H](OC(=O)CCC(=O)OCCOCCOc6no[n+]([O-])c6S(=O)(=O)c6ccccc6)C(C)(C)[C@@H]5CC[C@]43C)[C@@H]2C1`, the outcome in [1], in assay [2], in assay [4], in assay [5], in [6] and in assay [7] was inactive. Further, the result in [17] and in [18] was inactive. The outcome in assay [3] and in assay [8] was Active. Moreover, the Activity in [9] came out at 95.63%; in assay [10], 67.96%; in [11], 17.32%; in assay [12], 2.7%; in [13] it was 88.65%; in [14] it was 56.43%. In addition, the results for the Activity in assay [15] and in [16] were 9.78% and 0%, respectively.
